Test results published in the supplement of paper PMC10307832.

Columns and labels:
Assay in all cases: relative viability (nuclei count vs DMSO), 5 days (fraction); higher = more cells survive
[1] = compound: C/C(=N\NC(=S)N1CCC1)/C2=CC=CC=N2 + CC(=O)c1c(C)c2cnc(Nc3ccc(N4CCNCC4)cn3)nc2n(C2CCCC2)c1=O [Palbociclib] (partner 0.5 µM)
Outline: (§1)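 Medians of duplicate plates are given as relative viability. That measure is the nuclei count in treated wells divided by the count in vehicle wells. Counts were taken on 4× images of lung cancer cell lines in 1536-well plates, 5 days after pin-tool dosing the day after seeding with one drug alone or a fixed anchor-drug dose plus five library-drug doses (not always all listed) in √10 steps.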

[2] = compound: C/C(=N\NC(=S)N1CCC1)/C2=CC=CC=N2 + N=C(N)NC(=N)NCCc1ccccc1 [Phenformin] (partner 250 µM)
Outline: as §1

[3] = compound: C/C(=N\NC(=S)N1CCC1)/C2=CC=CC=N2 + CS(=O)(=O)N1CCN(Cc2cc3nc(-c4cccc5[nH]ncc45)nc(N4CCOCC4)c3s2)CC1 [Pictilisib] (partner 1 µM)
Outline: as §1

[4] = compound: C/C(=N\NC(=S)N1CCC1)/C2=CC=CC=N2 + Nc1ncn([C@H]2C[C@H](O)[C@@H](CO)O2)c(=O)n1 [Decitabine] (partner 2 µM)
Outline: as §1

| Cell Line | relative viability ([1]; first compound 0.05 µM) | relative viability ([1]; first compound 0.1581 µM) | relative viability ([1]; first compound 0.5 µM) | relative viability ([1]; first compound 1.581 µM) | relative viability ([1]; first compound 5 µM) | relative viability ([2]; first compound 0.05 µM) | relative viability ([2]; first compound 0.1581 µM) | relative viability ([2]; first compound 0.5 µM) | relative viability ([2]; first compound 1.581 µM) | relative viability ([2]; first compound 5 µM) | relative viability ([3]; first compound 0.05 µM) | relative viability ([3]; first compound 0.1581 µM) | relative viability ([3]; first compound 0.5 µM) | relative viability ([3]; first compound 1.581 µM) | relative viability ([3]; first compound 5 µM) | relative viability ([4]; first compound 0.05 µM) | relative viability ([4]; first compound 0.1581 µM) | relative viability ([4]; first compound 0.5 µM) | relative viability ([4]; first compound 1.581 µM) | relative viability ([4]; first compound 5 µM) |
| --- | --- | --- | --- | --- | --- | --- | --- | --- | --- | --- | --- | --- | --- | --- | --- | --- | --- | --- | --- | --- |
| LXF-289 | 0.252 | 0.6 | 0.189 | 0.143 | 0.13 | 0.22 | 0.203 | 0.202 | 0.2 | 0.0793 | 0.192 | 0.151 | 0.16 | 0.103 | 0.123 | 0.274 | 0.356 | 0.198 | 0.236 | 0.158 |
| HCC-44 | 0.976 | 0.886 | 0.563 | 0.556 | 0.451 | 0.0955 | 0.14 | 0.0915 | 0.153 | 0.188 | 0.341 | 0.142 | 0.125 | 0.149 | 0.217 | 0.559 | 0.544 | 0.52 | 0.551 | 0.428 |
| PC-14 | 0.0312 | 0.0553 | 0.052 | 0.0451 | 0.0402 | 0.0972 | 0.134 | 0.095 | 0.0228 | 0.0472 | 0.0639 | 0.0478 | 0.0584 | 0.0411 | 0.0523 | 0.0702 | 0.088 | 0.0592 | 0.0503 | 0.0468 |
| HOP-62 | 0.0827 | 0.234 | 0.0724 | 0.107 | 0.0858 | 0.0721 | 0.0624 | 0.0719 | 0.0958 | 0.0779 | 0.0606 | 0.0715 | 0.0848 | 0.0699 | 0.0611 | 0.121 | 0.142 | 0.0886 | 0.106 | 0.117 |
| NCI-H358 | 0.0943 | 0.103 | 0.106 | 0.07 | 0.0834 | 0.0917 | 0.112 | 0.101 | 0.0719 | 0.107 | 0.178 | 0.214 | 0.19 | 0.142 | 0.163 | 0.114 | 0.12 | 0.0978 | 0.0977 | 0.0971 |
| SK-MES-1 | 0.221 | 0.2 | 0.2 | 0.174 | 0.177 | 0.219 | 0.233 | 0.197 | 0.175 | 0.173 | 0.168 | 0.174 | 0.153 | 0.139 | 0.162 | 0.193 | 0.186 | 0.171 | 0.142 | 0.19 |
| NCI-H1666 | 0.617 | 0.608 | 0.564 | 0.495 | 0.509 | 0.467 | 0.462 | 0.419 | 0.433 | 0.361 | 0.158 | 0.22 | 0.234 | 0.176 | 0.2 | 0.367 | 0.368 | 0.411 | 0.329 | 0.375 |
| NCI-H1355 | 0.171 | 0.167 | 0.165 | 0.148 | 0.154 | 0.266 | 0.295 | 0.251 | 0.263 | 0.2 | 0.198 | 0.165 | 0.178 | 0.172 | 0.148 | 0.206 | 0.207 | 0.189 | 0.172 | 0.157 |
